Results on 15 molecules are retold here after patent US10087170B2, “Compound, photosensitive resin composition including the same, and color filter” (SAMSUNG SDI CO., LTD., priority 2016, dated 2018).

A short description of this series: Evaluation 1: Solubility in organic solvents. It counts as physicochemical. To be noted: 0.5 g compound, stirred at 25° C. and 100 rpm for 1 hour; for Amount of dissolved compound (wt %) Chloroform: solvent chloroform; for Amount of dissolved compound (wt %) Diacetone alcohol: solvent diacetone alcohol. An excerpt: Solubility Evaluation Reference
X: solubility of less than 1 wt %
∘: solubility of greater than or equal to 1 wt % and less than 5 wt %
⊚: solubility of greater than or equal to 5 wt %

For `C=CC(=O)OCC[N+](CC)=c1ccc2c(-c3ccccc3S(=O)(=O)[O-])c3ccc(N(CC)CCCCCCN(CC)c4ccc5c(-c6ccccc6S(=O)(=O)[O-])c6ccc(=[N+](CC)CCOC(=O)C=C)cc-6oc5c4)cc3oc-2c1` [Chemical Formula 17], the “Amount of dissolved compound (wt %) Chloroform” value (from here on “Amount … (wt %) Chloroform”) is recorded as “⊚ (solubility of greater than or equal to 5 wt %)” and the “Amount of dissolved compound (wt %) Diacetone alcohol” value (shortened to “Amount … (wt %) Diacetone alcohol”) is reported as “⊚ (solubility of greater than or equal to 5 wt %)”.
In the case of `C=C(C)C(=O)OCCNC(=O)OCC[N+](CC)=c1ccc2c(-c3ccccc3S(=O)(=O)[O-])c3ccc(N(CC)CCCCCCN(CC)c4ccc5c(-c6ccccc6S(=O)(=O)[O-])c6ccc(=[N+](CC)CC)cc-6oc5c4)cc3oc-2c1` [Chemical Formula 21], the “Amount … (wt %) Chloroform” value was “⊚ (solubility of greater than or equal to 5 wt %)” and the “Amount … (wt %) Diacetone alcohol” value is listed as “⊚ (solubility of greater than or equal to 5 wt %)”.
On to `CC[N+](CC)=c1ccc2c(-c3ccccc3S(=O)(=O)[N-]S(=O)(=O)C(F)(F)F)c3ccc(N(C)CCCCCCN(C)c4ccc5c(-c6ccccc6S(=O)(=O)[N-]S(=O)(=O)C(F)(F)F)c6ccc(=[N+](CC)CC)cc-6oc5c4)cc3oc-2c1` [Chemical Formula 12], for which the “Amount … (wt %) Chloroform” value is “◯ (solubility of greater than or equal lo 1 wt % and less than 5 wt %)”; the “Amount … (wt %) Diacetone alcohol” value was “◯ (solubility of greater than or equal lo 1 wt % and less than 5 wt %)”.
`CCN(CC)c1ccc2c(-c3ccccc3S(=O)(=O)[O-])c3ccc(=[N+](CC)CC)cc-3oc2c1` [Chemical Formula X, reference compound]: the “Amount … (wt %) Chloroform” value was “X (solubility of less than 1 wt %)” and the “Amount … (wt %) Diacetone alcohol” value was “X (solubility of less than 1 wt %)”.
For `C=C(C)C(=O)OCC[N+](CC)=c1ccc2c(-c3ccccc3S(=O)(=O)[O-])c3ccc(N(CC)CCCCCCN(CC)c4ccc5c(-c6ccccc6S(=O)(=O)[O-])c6ccc(=[N+](CC)CCOC(=O)C(=C)C)cc-6oc5c4)cc3oc-2c1` [Chemical Formula 18], the “Amount … (wt %) Chloroform” value is given as “⊚ (solubility of greater than or equal to 5 wt %)” and the “Amount … (wt %) Diacetone alcohol” value is listed as “⊚ (solubility of greater than or equal to 5 wt %)”.
For the molecule `C=C(C)C(=O)OCCNC(=O)OCC[N+](CC)=c1ccc2c(-c3ccccc3S(=O)(=O)[O-])c3ccc(N(C)CCCCCCN(C)c4ccc5c(-c6ccccc6S(=O)(=O)[O-])c6ccc(=[N+](CC)CCOC(=O)NCCOC(=O)C(=C)C)cc-6oc5c4)cc3oc-2c1` [Chemical Formula 13], the “Amount … (wt %) Chloroform” value was “⊚ (solubility of greater than or equal to 5 wt %)” and the “Amount … (wt %) Diacetone alcohol” value is recorded as “⊚ (solubility of greater than or equal to 5 wt %)”.
Turning to `CCN(CCOC(=O)NCCCCCCNC(=O)OCCN(CC)c1ccc2c(-c3ccccc3S(=O)(=O)[O-])c3ccc(=[N+](CC)CC)cc-3oc2c1)c1ccc2c(-c3ccccc3S(=O)(=O)[O-])c3ccc(=[N+](CC)CC)cc-3oc2c1` [Chemical Formula 9], the “Amount … (wt %) Chloroform” value was “◯ (solubility of greater than or equal lo 1 wt % and less than 5 wt %)”; the “Amount … (wt %) Diacetone alcohol” value was “◯ (solubility of greater than or equal lo 1 wt % and less than 5 wt %)”.
On to `C=C(C)C(=O)OCC[N+](CC)=c1ccc2c(-c3ccccc3S(=O)(=O)[O-])c3ccc(N(CC)CCCCCCN(CC)c4ccc5c(-c6ccccc6S(=O)(=O)[O-])c6ccc(=[N+](CC)CC)cc-6oc5c4)cc3oc-2c1` [Chemical Formula 20], for which the “Amount … (wt %) Chloroform” value is recorded as “⊚ (solubility of greater than or equal to 5 wt %)” and the “Amount … (wt %) Diacetone alcohol” value is “⊚ (solubility of greater than or equal to 5 wt %)”.
As for `CCN(CCCCCCN(CC)c1ccc2c(-c3ccccc3S(=O)(=O)[O-])c3ccc(=[N+](CC)CC)cc-3oc2c1)c1ccc2c(-c3ccccc3S(=O)(=O)[O-])c3ccc(=[N+](CC)CC)cc-3oc2c1` [Chemical Formula 8], the “Amount … (wt %) Chloroform” value was “◯ (solubility of greater than or equal lo 1 wt % and less than 5 wt %)”; the “Amount … (wt %) Diacetone alcohol” value was “◯ (solubility of greater than or equal lo 1 wt % and less than 5 wt %)”.
Regarding `C=CC(=O)OCC[N+](CC)=c1ccc2c(-c3ccccc3S(=O)(=O)[O-])c3ccc(N(CC)CCCCCCN(CC)c4ccc5c(-c6ccccc6S(=O)(=O)[O-])c6ccc(=[N+](CC)CC)cc-6oc5c4)cc3oc-2c1` [Chemical Formula 19], the “Amount … (wt %) Chloroform” value was “⊚ (solubility of greater than or equal to 5 wt %)” and the “Amount … (wt %) Diacetone alcohol” value is “⊚ (solubility of greater than or equal to 5 wt %)”.
As to `CC[N+](CC)=c1ccc2c(-c3ccccc3S(=O)(=O)[O-])c3ccc(N(C)CCCCCCN(C)c4ccc5c(-c6ccccc6S(=O)(=O)[O-])c6ccc(=[N+](CC)CC)cc-6oc5c4)cc3oc-2c1` [Chemical Formula 7], the “Amount … (wt %) Chloroform” value was “◯ (solubility of greater than or equal lo 1 wt % and less than 5 wt %)”; the “Amount … (wt %) Diacetone alcohol” value was “◯ (solubility of greater than or equal lo 1 wt % and less than 5 wt %)”.
Consider `CCN(CCOC(=O)NCC1CCCC(CNC(=O)OCCN(CC)c2ccc3c(-c4ccccc4S(=O)(=O)[O-])c4ccc(=[N+](CC)CC)cc-4oc3c2)C1)c1ccc2c(-c3ccccc3S(=O)(=O)[O-])c3ccc(=[N+](CC)CC)cc-3oc2c1` (stereo not drawn) [Chemical Formula 11], for which the “Amount … (wt %) Chloroform” value was “◯ (solubility of greater than or equal lo 1 wt % and less than 5 wt %)”; the “Amount … (wt %) Diacetone alcohol” value was “◯ (solubility of greater than or equal lo 1 wt % and less than 5 wt %)”.
Turning to `CCN(CCOC(=O)NC1CCC(CC2CCC(NC(=O)OCCN(CC)c3ccc4c(-c5ccccc5S(=O)(=O)[O-])c5ccc(=[N+](CC)CC)cc-5oc4c3)CC2)CC1)c1ccc2c(-c3ccccc3S(=O)(=O)[O-])c3ccc(=[N+](CC)CC)cc-3oc2c1` (stereo not drawn) [Chemical Formula 16], the “Amount … (wt %) Chloroform” value is “◯ (solubility of greater than or equal lo 1 wt % and less than 5 wt %)”; the “Amount … (wt %) Diacetone alcohol” value was “◯ (solubility of greater than or equal lo 1 wt % and less than 5 wt %)”.
In the case of `C=C(C)C(=O)OCCNC(=O)OCC[N+](CC)=c1ccc2c(-c3ccccc3S(=O)(=O)[O-])c3ccc(N(CC)CCCCCCN(CC)c4ccc5c(-c6ccccc6S(=O)(=O)[O-])c6ccc(=[N+](CC)CCOC(=O)NCCOC(=O)C(=C)C)cc-6oc5c4)cc3oc-2c1` [Chemical Formula 14], the “Amount … (wt %) Chloroform” value is “⊚ (solubility of greater than or equal to 5 wt %)” and the “Amount … (wt %) Diacetone alcohol” value is reported as “⊚ (solubility of greater than or equal to 5 wt %)”.
In the case of `CCN(CCOC(=O)CCCCCCC(=O)OCCN(CC)c1ccc2c(-c3ccccc3S(=O)(=O)[O-])c3ccc(=[N+](CC)CC)cc-3oc2c1)c1ccc2c(-c3ccccc3S(=O)(=O)[O-])c3ccc(=[N+](CC)CC)cc-3oc2c1` [Chemical Formula 10], the “Amount … (wt %) Chloroform” value was “◯ (solubility of greater than or equal lo 1 wt % and less than 5 wt %)”; the “Amount … (wt %) Diacetone alcohol” value was “◯ (solubility of greater than or equal lo 1 wt % and less than 5 wt %)”.
